According to patent US7994140B2, “Classes of compounds that interact with GPCRs” (Alchemia Limited, priority 2002, dated 2011):

Key:
MC4 = molecular target: T1, MC4 (Homo sapiens, UniProt P32245); assay: GPCR radioligand binding (RLB) assay, melanocortin MC4, [125I]NDP-αMSH
T1 construct: purchased Perkin Elmer BioSignal; host or cells: HEK 293
Summary of the method: (§1)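 Competition binding against radioligand ([125I]NDP-αMSH for MC4, [125I]SST-14 for SST5) on membranes of HEK 293 cells carrying the human receptor; buffer and incubation time optimized per receptor. Filtration through 0.5% PEI-treated glass fiber, washing, then scintillation counting.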

SST5 = molecular target: T2, SST5 (Homo sapiens, UniProt P35346); assay: GPCR radioligand binding (RLB) assay, somatostatin SST5, [125I]SST-14; conditions: for SST5 inhibition at 10 micromolar: 10 micromolar compound, recombinant human receptor membranes (HEK 293); for SSTS inhibition at 10 micromolar: Example Library 4
T2 construct: purchased Perkin Elmer BioSignal; host or cells: HEK 293
T2 sequence (P35346 whole entry): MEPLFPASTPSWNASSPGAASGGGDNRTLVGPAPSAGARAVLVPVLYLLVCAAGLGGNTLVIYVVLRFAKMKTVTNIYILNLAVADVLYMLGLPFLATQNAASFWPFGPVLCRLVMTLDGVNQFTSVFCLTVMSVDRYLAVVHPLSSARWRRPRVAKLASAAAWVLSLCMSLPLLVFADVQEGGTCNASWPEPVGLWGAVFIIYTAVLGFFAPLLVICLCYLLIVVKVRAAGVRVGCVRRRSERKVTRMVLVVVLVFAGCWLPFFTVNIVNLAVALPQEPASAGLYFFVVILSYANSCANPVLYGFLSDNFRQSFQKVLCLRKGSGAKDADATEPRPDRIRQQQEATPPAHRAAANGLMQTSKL
Summary of the method: as §1

[1] = 10 micromolar compound, recombinant human receptor membranes (HEK 293)
[2] = 10 micromolar, Example Library 4

T1 sequence (P32245 whole entry): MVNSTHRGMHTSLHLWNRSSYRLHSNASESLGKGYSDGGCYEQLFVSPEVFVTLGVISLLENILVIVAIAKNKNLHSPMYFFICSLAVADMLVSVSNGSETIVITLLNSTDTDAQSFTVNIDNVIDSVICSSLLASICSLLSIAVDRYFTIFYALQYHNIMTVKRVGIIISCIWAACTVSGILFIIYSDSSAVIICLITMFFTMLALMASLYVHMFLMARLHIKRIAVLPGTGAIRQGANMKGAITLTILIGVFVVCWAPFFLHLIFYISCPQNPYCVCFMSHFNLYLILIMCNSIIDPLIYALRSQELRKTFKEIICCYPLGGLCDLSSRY

| SMILES | MC4 inhibition at 10 micromolar (MC4; [1]) | SST5 inhibition at 10 micromolar (SST5) | MC4 inhibition at 10 micromolar (MC4; [2]) | SSTS inhibition at 10 micromolar (SST5) |
| --- | --- | --- | --- | --- |
| CSC1OC(COCc2ccc(-c3ccccc3)cc2)C(O)C(OCc2ccc3ccccc3c2)C1NC(=O)CN (stereo not shown) [Compound 203] | + (Indicates inhibition greater than . . . 50%) | + (Indicates inhibition greater than . . . 50%) |  |  |
| CSC1OC(COCc2ccc(-c3ccccc3)cc2)C(O)C(OCc2ccc3ccccc3c2)C1NC(=O)CNC(=N)N (stereo not shown) [Compound 204] | + (Indicates inhibition greater than . . . 50%) | + (Indicates inhibition greater than . . . 50%) |  |  |
| CSC1OC(COCc2ccc(-c3ccccc3)cc2)C(O)C(OCc2ccc3ccccc3c2)C1NC(=O)CCN (stereo not shown) [Compound 205] | + (Indicates inhibition greater than . . . 50%) | + (Indicates inhibition greater than . . . 50%) |  |  |
| CSC1OC(COCc2ccc(-c3ccccc3)cc2)C(O)C(OCc2ccc3ccccc3c2)C1NC(=O)CCNC(=N)N (stereo not shown) [Compound 206] | + (Indicates inhibition greater than . . . 50%) | + (Indicates inhibition greater than . . . 50%) |  |  |
| CSC1OC(COCc2ccc(-c3ccccc3)cc2)C(O)C(OCc2ccc3ccccc3c2)C1NC(=O)CCCN (stereo not shown) [Compound 207] | + (Indicates inhibition greater than . . . 50%) | + (Indicates inhibition greater than . . . 50%) |  |  |
| CSC1OC(COCc2ccc(-c3ccccc3)cc2)C(O)C(OCc2ccc3ccccc3c2)C1NC(=O)CCCNC(=N)N (stereo not shown) [Compound 208] | + (Indicates inhibition greater than . . . 50%) | + (Indicates inhibition greater than . . . 50%) |  |  |
| CSC1OC(COCc2ccc3ccccc3c2)C(O)C(OCc2ccc3ccccc3c2)C1NC(=O)CN (stereo not shown) [Compound 209] | + (Indicates inhibition greater than . . . 50%) | + (Indicates inhibition greater than . . . 50%) |  |  |
| CSC1OC(COCc2ccc3ccccc3c2)C(O)C(OCc2ccc3ccccc3c2)C1NC(=O)CNC(=N)N (stereo not shown) [Compound 210] | + (Indicates inhibition greater than . . . 50%) | + (Indicates inhibition greater than . . . 50%) |  |  |
| CSC1OC(COCc2ccc3ccccc3c2)C(O)C(OCc2ccc3ccccc3c2)C1NC(=O)CCN (stereo not shown) [Compound 211] | + (Indicates inhibition greater than . . . 50%) | + (Indicates inhibition greater than . . . 50%) |  |  |
| CSC1OC(COCc2ccc3ccccc3c2)C(O)C(OCc2ccc3ccccc3c2)C1NC(=O)CCNC(=N)N (stereo not shown) [Compound 212] | + (Indicates inhibition greater than . . . 50%) | + (Indicates inhibition greater than . . . 50%) |  |  |
| COCC1OC(OCc2ccccc2)C(NC(=O)CNC(=N)N)C(OCc2ccccc2)C1O (stereo not shown) [Compound 214] |  |  | + (Indicates inhibition greater than . . . 50%) | + (Indicates inhibition greater than . . . 50%) |
| COCC1OC(OCc2ccccc2)C(NC(=O)CCNC(=N)N)C(OCc2ccccc2)C1O (stereo not shown) [Compound 216] |  |  | + (Indicates inhibition greater than . . . 50%) | + (Indicates inhibition greater than . . . 50%) |
| COCC1OC(OCc2ccccc2)C(NC(=O)CCCNC(=N)N)C(OCc2ccccc2)C1O (stereo not shown) [Compound 218] |  |  | + (Indicates inhibition greater than . . . 50%) | + (Indicates inhibition greater than . . . 50%) |
| COCC1OC(OCc2ccccc2)C(NC(=O)CN)C(OCc2ccc(Cl)cc2)C1O (stereo not shown) [Compound 219] |  |  | + (Indicates inhibition greater than . . . 50%) | + (Indicates inhibition greater than . . . 50%) |
| COCC1OC(OCc2ccccc2)C(NC(=O)CNC(=N)N)C(OCc2ccc(Cl)cc2)C1O (stereo not shown) [Compound 220] |  |  | + (Indicates inhibition greater than . . . 50%) | + (Indicates inhibition greater than . . . 50%) |
| COCC1OC(OCc2ccccc2)C(NC(=O)CCN)C(OCc2ccc(Cl)cc2)C1O (stereo not shown) [Compound 221] |  |  | + (Indicates inhibition greater than . . . 50%) | + (Indicates inhibition greater than . . . 50%) |
| COCC1OC(OCc2ccccc2)C(NC(=O)CCNC(=N)N)C(OCc2ccc(Cl)cc2)C1O (stereo not shown) [Compound 222] |  |  | + (Indicates inhibition greater than . . . 50%) | + (Indicates inhibition greater than . . . 50%) |
| COCC1OC(OCc2ccccc2)C(NC(=O)CCCN)C(OCc2ccc(Cl)cc2)C1O (stereo not shown) [Compound 223] |  |  | + (Indicates inhibition greater than . . . 50%) | + (Indicates inhibition greater than . . . 50%) |
| COCC1OC(OCc2ccccc2)C(NC(=O)CCCNC(=N)N)C(OCc2ccc(Cl)cc2)C1O (stereo not shown) [Compound 224] |  |  | + (Indicates inhibition greater than . . . 50%) | + (Indicates inhibition greater than . . . 50%) |

| SMILES | MC4 inhibition at 10 micromolar (MC4; [1]) | SST5 inhibition at 10 micromolar (SST5) | MC4 inhibition at 10 micromolar (MC4; [2]) | SSTS inhibition at 10 micromolar (SST5) |
| --- | --- | --- | --- | --- |
| COCC1OC(OCc2ccccc2)C(NC(=O)CN)C(OCc2ccc(-c3ccccc3)cc2)C1O (stereo not shown) [Compound 225] |  |  | + (Indicates inhibition greater than . . . 50%) | + (Indicates inhibition greater than . . . 50%) |
| COCC1OC(OCc2ccccc2)C(NC(=O)CNC(=N)N)C(OCc2ccc(-c3ccccc3)cc2)C1O (stereo not shown) [Compound 226] |  |  | + (Indicates inhibition greater than . . . 50%) | + (Indicates inhibition greater than . . . 50%) |
| COCC1OC(OCc2ccccc2)C(NC(=O)CCN)C(OCc2ccc(-c3ccccc3)cc2)C1O (stereo not shown) [Compound 227] |  |  | + (Indicates inhibition greater than . . . 50%) | + (Indicates inhibition greater than . . . 50%) |
| COCC1OC(OCc2ccccc2)C(NC(=O)CCNC(=N)N)C(OCc2ccc(-c3ccccc3)cc2)C1O (stereo not shown) [Compound 228] |  |  | + (Indicates inhibition greater than . . . 50%) | + (Indicates inhibition greater than . . . 50%) |
| COCC1OC(OCc2ccccc2)C(NC(=O)CCCN)C(OCc2ccc(-c3ccccc3)cc2)C1O (stereo not shown) [Compound 229] |  |  | + (Indicates inhibition greater than . . . 50%) | + (Indicates inhibition greater than . . . 50%) |
| COCC1OC(OCc2ccccc2)C(NC(=O)CCCNC(=N)N)C(OCc2ccc(-c3ccccc3)cc2)C1O (stereo not shown) [Compound 230] |  |  | + (Indicates inhibition greater than . . . 50%) | + (Indicates inhibition greater than . . . 50%) |
| COCC1OC(OCc2ccccc2)C(NC(=O)CNC(=N)N)C(OCc2ccc3ccccc3c2)C1O (stereo not shown) [Compound 232] |  |  | + (Indicates inhibition greater than . . . 50%) | + (Indicates inhibition greater than . . . 50%) |
| COCC1OC(OCc2ccccc2)C(NC(=O)CCN)C(OCc2ccc3ccccc3c2)C1O (stereo not shown) [Compound 233] |  |  | + (Indicates inhibition greater than . . . 50%) | + (Indicates inhibition greater than . . . 50%) |
| COCC1OC(OCc2ccccc2)C(NC(=O)CCNC(=N)N)C(OCc2ccc3ccccc3c2)C1O (stereo not shown) [Compound 234] |  |  | + (Indicates inhibition greater than . . . 50%) | + (Indicates inhibition greater than . . . 50%) |
| COCC1OC(OCc2ccccc2)C(NC(=O)CCCN)C(OCc2ccc3ccccc3c2)C1O (stereo not shown) [Compound 235] |  |  | + (Indicates inhibition greater than . . . 50%) | + (Indicates inhibition greater than . . . 50%) |
| COCC1OC(OCc2ccccc2)C(NC(=O)CCCNC(=N)N)C(OCc2ccc3ccccc3c2)C1O (stereo not shown) [Compound 236] |  |  | + (Indicates inhibition greater than . . . 50%) | + (Indicates inhibition greater than . . . 50%) |
| COCC1OC(OCc2ccc(Cl)cc2)C(NC(=O)CNC(=N)N)C(OCc2ccccc2)C1O (stereo not shown) [Compound 237] |  |  | + (Indicates inhibition greater than . . . 50%) | + (Indicates inhibition greater than . . . 50%) |
| COCC1OC(OCc2ccc(Cl)cc2)C(NC(=O)CCNC(=N)N)C(OCc2ccccc2)C1O (stereo not shown) [Compound 239] |  |  | + (Indicates inhibition greater than . . . 50%) | + (Indicates inhibition greater than . . . 50%) |
| COCC1OC(OCc2ccc(Cl)cc2)C(NC(=O)CCCNC(=N)N)C(OCc2ccccc2)C1O (stereo not shown) [Compound 241] |  |  | + (Indicates inhibition greater than . . . 50%) | + (Indicates inhibition greater than . . . 50%) |
| COCC1OC(OCc2ccc(Cl)cc2)C(NC(=O)CN)C(OCc2ccc(Cl)cc2)C1O (stereo not shown) [Compound 242] |  |  | + (Indicates inhibition greater than . . . 50%) | + (Indicates inhibition greater than . . . 50%) |
| COCC1OC(OCc2ccc(Cl)cc2)C(NC(=O)CNC(=N)N)C(OCc2ccc(Cl)cc2)C1O (stereo not shown) [Compound 243] |  |  | + (Indicates inhibition greater than . . . 50%) | + (Indicates inhibition greater than . . . 50%) |
| COCC1OC(OCc2ccc(Cl)cc2)C(NC(=O)CCN)C(OCc2ccc(Cl)cc2)C1O (stereo not shown) [Compound 244] |  |  | + (Indicates inhibition greater than . . . 50%) | + (Indicates inhibition greater than . . . 50%) |
| COCC1OC(OCc2ccc(Cl)cc2)C(NC(=O)CCNC(=N)N)C(OCc2ccc(Cl)cc2)C1O (stereo not shown) [Compound 245] |  |  | + (Indicates inhibition greater than . . . 50%) | + (Indicates inhibition greater than . . . 50%) |
| COCC1OC(OCc2ccc(Cl)cc2)C(NC(=O)CCCN)C(OCc2ccc(Cl)cc2)C1O (stereo not shown) [Compound 246] |  |  | + (Indicates inhibition greater than . . . 50%) | + (Indicates inhibition greater than . . . 50%) |
